In experiment [1] the target is T1, Mitogen-activated protein kinase 8 (Homo sapiens, UniProt P45983). The experiment is described as follows: In Vitro Kinase Assay (LanthaScreen Kinase Assay). The settings on record: pH 7.5; 22 °C.
In experiment [2] the target is T1, Mitogen-activated protein kinase 8. Kind of experiment: DELFIA Assay (Dissociation Enhanced Lanthanide Fluoro-Immuno Assay). The settings on record: pH 7.8. Here is the method:
Compound was evaluated for its ability to disrupt the interaction of pepJIP1 with JNK1 by using DELFIA assay. DELFIA is a heterogeneous assay whereby a biotin-linked pepJIP1 is adsorbed onto a streptavidin-coated plate followed by incubation with GST-JNK1. […] Controls include unlabeled peptide and blanks receiving no compounds.

The results in this text go back to BindingDB's records for doi:10.1073/pnas.0805677105 (Burnham Institute For Medical Research, 2008).

T1 sequence (P45983 whole entry): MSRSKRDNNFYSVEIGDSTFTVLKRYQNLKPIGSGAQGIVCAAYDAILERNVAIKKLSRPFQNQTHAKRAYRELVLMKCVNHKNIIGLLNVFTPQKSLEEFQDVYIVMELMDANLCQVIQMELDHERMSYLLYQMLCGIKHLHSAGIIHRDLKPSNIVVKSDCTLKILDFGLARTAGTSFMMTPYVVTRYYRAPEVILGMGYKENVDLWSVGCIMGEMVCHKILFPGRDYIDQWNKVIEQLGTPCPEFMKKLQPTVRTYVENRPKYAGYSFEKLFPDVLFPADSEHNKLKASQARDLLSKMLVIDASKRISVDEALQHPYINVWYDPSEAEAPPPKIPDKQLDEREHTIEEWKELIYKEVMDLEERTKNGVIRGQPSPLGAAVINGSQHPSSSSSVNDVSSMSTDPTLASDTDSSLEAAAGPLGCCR

As for `O=c1[nH]nc(Sc2ccc([N+](=O)[O-])s2)n1-c1ccc2c(c1)OCCO2` [4-(2,3-dihydro-1,4-benzodioxin-6-yl)-5-[(5-nitrothiophen-2-yl)sulfanyl]-4H-1,2,4-triazol-3-ol], the values for the 50% inhibitory concentration (IC50) in experiment [1] and in experiment [2] were greater than 100 µM and greater than 25 µM, respectively.

In the case of `Cc1nc(Sc2nnnn2-c2ccccc2)sc1C(=O)O` [4-methyl-2-[(1-phenyl-1H-1,2,3,4-tetrazol-5-yl)sulfanyl]-1,3-thiazole-5-carboxylic acid], the half-inhibitory concentration (IC50) is greater than 100 µM in experiment [1] and 7.5 µM in experiment [2].

In the case of `c1ccc(CSc2nnnn2-c2ccccc2)cc1` [5-(benzylsulfanyl)-1-phenyl-1H-1,2,3,4-tetrazole], the IC50 in experiment [1] was greater than 100 µM; in experiment [2] it was greater than 25 µM.

In the case of `O=c1[nH]nc(Sc2ncc([N+](=O)[O-])s2)n1-c1ccccc1` [5-[(5-nitro-1,3-thiazol-2-yl)sulfanyl]-4-phenyl-4H-1,2,4-triazol-3-ol], the results for the IC50 in experiment [1] and in experiment [2] were 3.1 µM and 0.237 µM, respectively.

Regarding `O=[N+]([O-])c1cnc(Sc2nnnn2-c2ccccc2)s1` [5-nitro-2-[(1-phenyl-1H-1,2,3,4-tetrazol-5-yl)sulfanyl]-1,3-thiazole], the IC50 in experiment [1] amounted to 3.3 µM; in experiment [2], 0.183 µM.

One may read the IC50 as the concentration that inhibits the measured activity by half.
